PubChem BioAssay (NCI)
Values joined by “and” are separate entries in the source; they are usually repeats but may differ in a detail not shown here. Equal values may be shown once.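 Interpolation was linear, between the two tested concentrations surrounding the appropriate level; five concentrations were tested over 48 hours in 96-well plates. GI50 is the concentration that inhibits growth by half. TGI is the concentration that stops growth completely.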

Key:
Assay in all cases: NCI anticancer screen, dose series, 48 h
OVCAR-5 ovarian = system: OVCAR-5 ovarian
NCI-H23 lung = system: NCI-H23 lung
RPMI-8226 leukemia = system: RPMI-8226 leukemia
SK-MEL-28 melanoma = system: SK-MEL-28 melanoma
SK-OV-3 ovarian = system: SK-OV-3 ovarian
CAKI-1 renal = system: CAKI-1 renal
EKVX NSCLC = system: EKVX NSCLC
NCI-H460 lung = system: NCI-H460 lung
HCT-116 colon = system: HCT-116 colon
HCC-2998 colon = system: HCC-2998 colon

SMILES | TGI (OVCAR-5 ovarian) | TGI (NCI-H23 lung) [µM] | TGI (RPMI-8226 leukemia) | TGI (SK-MEL-28 melanoma) | TGI (SK-OV-3 ovarian) [µM] | TGI (CAKI-1 renal) | TGI (EKVX NSCLC) [µM] | TGI (NCI-H460 lung) [µM] | TGI (HCT-116 colon) | TGI (HCC-2998 colon) [µM] | GI50 (OVCAR-5 ovarian) | GI50 (NCI-H23 lung) | GI50 (RPMI-8226 leukemia) | GI50 (SK-MEL-28 melanoma) | GI50 (SK-OV-3 ovarian) | GI50 (CAKI-1 renal) | GI50 (EKVX NSCLC) | GI50 (NCI-H460 lung) | GI50 (HCT-116 colon) | GI50 (HCC-2998 colon)
CC/C(=N/O)C(C)C(=O)CCC(=O)Nc1ccc(Cl)cc1 (centres undefined) | > 100 µM | > 100 | > 100 µM | > 100 µM | > 100 | > 100 µM | > 100 | > 100 | > 100 µM | > 100 | – | – | – | – | – | – | – | – | – | –
CC[C@H](C)C(=O)O[C@H]1C[C@@H](C)C=C2C=C[C@H](C)[C@H](CC[C@@H]3C[C@@H](O)CC(=O)O3)[C@H]21 | > 100 µM and 32.9 µM and > 30 µM | – | > 100 µM and 53.7 µM and > 30 µM | > 100 µM and 27.1 µM and > 30 µM | > 100 | 6.59 µM and 6.21 µM and 4.78 µM | > 100 | > 100 | 24.5 µM and 16.2 µM | > 100 | 12.5 µM and 10.3 µM | 5.37 µM and 8.14 µM | 8.88 µM and 8.95 µM | 14.4 µM and 10.4 µM | 7.58 µM and 6.68 µM | 2.14 µM and 1.9 µM | 4.32 µM and 6.61 µM | 11.4 µM and 5.59 µM | 3.77 µM and 2.05 µM | 26.3 µM and 25.1 µM
CCN(CC)CCC(CNc1c(C)cnc2cc(Cl)ccc12)c1ccc(Cl)c(Cl)c1 (centres undefined) | 18.9 µM | 20.6 | 6.49 µM | 3.83 µM | 28 | 11.5 µM | 14.2 | 10.7 | 8.86 µM | 3.36 | 4.62 µM | 5.62 µM | 2.15 µM | 1.97 µM | 14.4 µM | 2.59 µM | 3.21 µM | 2.63 µM | 1.36 µM | 1.77 µM
CC1=C(C(=O)NCc2ccccc2)C(c2ccc(N(C)C)cc2)C(C(=O)NCc2ccccc2)=C(C)N1 | > 100 µM | > 100 | > 100 µM | > 100 µM | > 100 | > 100 µM | > 100 | > 100 | > 100 µM | > 100 | – | – | – | – | – | – | – | – | – | –
